Data reported in US20230052298A1, “LACTIC ACID BACTERIUM FERMENTATION PROMOTER” (MEIJI CO., LTD., priority 2019, published 2023).

Experiments:
L. rhamnosus = assay: Test Example 5: organic acid concentrations after fermentation; format: cell-based, Lactobacillus rhamnosus; conditions: 1 mM added
Experimental: (§1) The measurement of the organic acid concentration after the completion of fermentation was carried out as follows. An aliquot of 0.4 g of the fermentate obtained (fermented milk) was diluted by 2-fold with pure water, 20 μL of Carrez's Reagent I (53.5% (w/v) zinc sulfate) was added thereto and the mixture was vortexed, and 20 μl of Carrez's Reagent II (17.2% (w/v) potassium ferrocyanide) was added thereto and the mixture was vortexed. The resulting mixture was centrifuged at 4° C., 20620 g for 10 minutes, and the supernatant was filtered through a 0.22 μm filter and the filtrate was analyzed under the conditions shown in Table 2. [table] The measurement of the organic acid concentration after the completion of fermentation by L. rhamnosus and L. salivarius in Test Example 3 or 4 was carried out in the same manner as in Test Example 2-1. The addition of malic acid or fumaric acid promoted production of succinic acid by L. rhamnosus and L. salivarius.

[1] = system: Lactobacillus delbrueckii subsp. bulgaricus OLL1073R-1; assay: Test Example 9: EPS production during culture; format: cell-based; conditions: 4 mM added; strain OLL1073R-1; 37° C.; compared with the control
Experimental: Frozen bacteria of Lactobacillus delbrueckii subsp. bulgaricus OLL1073R-1 were prepared.
Raw material components other than anhydrous crystalline glucose were dissolved in Elix water, the mixture was adjusted to pH 6.65 using sodium hydroxide, and then diluted in measuring flask to 70 wt % of the charge amount of the medium. Anhydrous crystalline glucose was dissolved in Elix water, and diluted in measuring flask to 30 wt % of the charge amount of the medium.
In addition, the raw material components other than sugar solution and sugar were sterilized separately by heating at 110° C. for 1 minute in an autoclave and then aseptically mixed and used.
An aliquot of 1.5 kg of the above medium was adjusted to pH 5.4 using 6 N potassium carbonate, to the medium, 0.30 mass % of frozen bacteria (with respect to the amount of medium) was inoculated, and the bacteria were cultured at 37° C. while top ventilating with nitrogen at a flow rate of 0.5 L/min and stirring under the condition of 150 rpm.
The EPS concentration was measured under the following conditions. […]
The supernatant was removed by centrifuging (4° C., 13400 g, 20 min), and 20 ml of cooled 66% ethanol was added thereto to suspend the precipitate. […] The EPS concentration of the analysis sample was measured by the phenol-sulfuric acid method.

[2] = system: L. delbrueckii subsp. bulgaricus 2038; assay: Test Example 2-1: organic acid concentrations after fermentation (HPLC); format: cell-based, Lactobacillus delbrueckii subsp. bulgaricus; conditions: strain 2038
Experimental: The fermentation was carried out using a fermentation medium (raw material milk). The fermentation medium was prepared by adding formic acid to the 10% reduced skim milk medium so as to give a final concentration of 1 mM, and then sterilizing the mixture at 95° C., and was used. […] In the above fermentation medium, a lactic acid bacterial starter of […] was inoculated at 0.5% (with respect to the amount of fermentation medium), statically cultured at 40° C., and fermented. The fermentation time was the time required for the medium to reach pH 4.6. The measurement of the organic acid concentration after the completion of fermentation was carried out as follows. An aliquot of 0.4 g of the fermentate obtained (fermented milk) was diluted by 2-fold with pure water, 20 μL of Carrez's Reagent I (53.5% (w/v) zinc sulfate) was added thereto and the mixture was vortexed, and 20 μl of Carrez's Reagent II (17.2% (w/v) potassium ferrocyanide) was added thereto and the mixture was vortexed. The resulting mixture was centrifuged at 4° C., 20620 g for 10 minutes, and the supernatant was filtered through a 0.22 μm filter and the filtrate was analyzed under the conditions shown in Table 2.

[3] = system: Lactobacillus delbrueckii subsp. bulgaricus; assay: Test Example 8: organic acid concentration in fermentate at completion of fermentation, inosinic acid medium; format: cell-based; conditions: 1 mM additive, 1 mM inosinic acid medium
Experimental: (§2) The strains shown in Tables 13 and 14 were precultured in the preculture medium and then used. The activation medium used was a 10 mass % reduced skim milk medium containing 0.1 mass % yeast extract, sterilized at 121° C. for 7 minutes. Here, the 10 mass % reduced skim milk medium is a 10 mass % aqueous solution of skim milk powder (fat 1 mass %, protein 34 mass %, lactose 54 mass %, ash 8 mass %, non-fat milk solid 96 mass %) (manufactured by Meiji Co., Ltd.) (in the above medium, lactose 5.4 mass %, non-fat milk solid 9.6 mass %). Frozen bacteria were added to the above-mentioned activation medium in an amount of 0.1 mass % (with respect to the amount of the activation medium) and statically cultured at 37° C. for 16 hours to obtain an activation solution. An aliquot of 0.1 mass % of the activation solution obtained (with respect to the amount of activation medium) was added to another activation medium, and the mixture was allowed to stand at 37° C. for 16 hours to obtain a lactic acid bacterial starter. Then, fermentation was carried out using a fermentation medium as raw material milk. The fermentation medium was prepared by adding inosinic acid to the 10 mass % reduced skim milk medium so as to give a final concentration of 1 mM, and then sterilizing the mixture at 95° C., and was used. […] The pH of the fermentation medium was about 6.4. The lactic acid bacterial starter of each strain obtained above was inoculated into the fermentation medium in an amount of 2.5 mass % (with respect to the amount of the fermentation medium), statically cultured at 40° C., and fermented. The fermentation time was the time required for the medium to reach pH 4.6. The pH value was measured using a commercially available pH meter.

[4] = system: Lactobacillus delbrueckii subsp. bulgaricus; assay: Test Example 2-2: organic acid concentration in fermentate at completion of fermentation, formic acid medium; format: cell-based; conditions: 1 mM additive, 1 mM formic acid medium
Experimental: as §2, with “6” for “13”, “7” for “14”, “formic” for “inosinic”

L. salivarius = assay: Test Example 5: organic acid concentrations after fermentation; format: cell-based, Lactobacillus salivarius; conditions: 1 mM added
Experimental: as §1

[5] = system: L. delbrueckii subsp. bulgaricus 2038; assay: Test Example 2-1: fermentation time versus concentration of malic acid or fumaric acid; format: cell-based, Lactobacillus delbrueckii subsp. bulgaricus; conditions: L. bulgaricus 2038; from Tables 3 and 4
Experimental: The fermentation was carried out using a fermentation medium (raw material milk). The fermentation medium was prepared by adding formic acid to the 10% reduced skim milk medium so as to give a final concentration of 1 mM, and then sterilizing the mixture at 95° C., and was used. […] In the above fermentation medium, a lactic acid bacterial starter of […] was inoculated at 0.5% (with respect to the amount of fermentation medium), statically cultured at 40° C., and fermented. The fermentation time was the time required for the medium to reach pH 4.6.

[6] = No addition of L. delbrueckii subsp. bulgaricus

SMILES	EPS concentration with the culturing time (FIG. 1) [1]	Concentration of fumaric acid ([2]; 1 mM added) [mM]	Concentration of malic acid ([2]; 1 mM added) [mM]	Concentration of malic acid [3, 6] [mM]	Concentration of succinic acid [3, 6] [mM]	Concentration of succinic acid in fermentate at completion of fermentation (pH 4.6) ([3]; strain 0LL1171) [mM]	Concentration of succinic acid in fermentate at completion of fermentation (pH 4.6) ([3]; strain 2038) [mM]	Concentration of succinic acid in fermentate at completion of fermentation (pH 4.6) ([3]; strain OLL1073R-1) [mM]	Concentration of succinic acid in fermentate at completion of fermentation (pH 4.6) ([3]; strain OLL1247) [mM]	Concentration of succinic acid in fermentate at completion of fermentation (pH 4.6) ([3]; strain OLL1255) [mM]	Concentration of succinic acid in fermentate at completion of fermentation (pH 4.6) ([3]; strain OLL205013) [mM]	Concentration of succinic acid in fermentate at completion of fermentation (pH 4.6) ([3]; strain P1902901) [mM]	Concentration of malic acid [4, 6] [mM]	Concentration of succinic acid [4, 6] [mM]	Concentration of succinic acid in fermentate at completion of fermentation (pH 4.6) ([4]; strain 2038) [mM]	Concentration of succinic acid in fermentate at completion of fermentation (pH 4.6) ([4]; strain OLL1073R-1) [mM]	Concentration of succinic acid in fermentate at completion of fermentation (pH 4.6) ([4]; strain OLL1171) [mM]	Concentration of succinic acid in fermentate at completion of fermentation (pH 4.6) ([4]; strain OLL1247) [mM]	Concentration of succinic acid in fermentate at completion of fermentation (pH 4.6) ([4]; strain OLL1255) [mM]	Concentration of succinic acid in fermentate at completion of fermentation (pH 4.6) ([4]; strain OLL205013) [mM]	other results
O=C(O)/C=C/C(=O)O [Fumaric acid, fumaric acid]	higher concentration compared with the control	0.00	0.00	0.13	0.06	1.43	1.43	1.52	1.57	1.49	1.60	1.40	0.11	0.07	1.67	1.73	1.58	1.72	1.49	1.54	Concentration of succinic acid (L. rhamnosus): 1.39 mM; Concentration of fumaric acid [3, 6]: 1.12 mM; Concentration of fumaric acid [4, 6]: 1.11 mM; Concentration of fumaric acid in fermentate at completion of fermentation (pH 4.6) ([4]; strain OLL1255): 0.15 mM; Concentration of succinic acid in fermentate at completion of fermentation (pH 4.6) ([4]; strain P1902901): 1.59 mM; Concentration of fumaric acid (L. salivarius): 0.62 mM; Concentration of malic acid (L. salivarius): 0.51 mM; Concentration of succinic acid (L. salivarius): 0.29 mM; Concentrations at which a fermentation promoting effect was confirmed [5]: 0.01 to 2.5 mM
O=C(O)CC(O)C(=O)O (centres unmarked) [Malic acid, malic acid]	higher concentration compared with the control	0.00	0.00	1.06	0.06	1.40	1.40	1.50	1.53	1.46	1.53	1.38	0.99	0.08	1.71	1.67	1.57	1.67	1.03	1.55	Concentration of succinic acid ([2]; 1 mM added): 1.94 mM; Concentration of fumaric acid ([2]; 10 mM added): 0.03 mM; Concentration of malic acid ([2]; 10 mM added): 4.27 mM; Concentration of succinic acid ([2]; 10 mM added): 5.78 mM; Concentration of fumaric acid ([2]; 50 mM added): 0.21 mM; Concentration of malic acid ([2]; 50 mM added): 42.05 mM; Concentration of succinic acid ([2]; 50 mM added): 9.84 mM; Concentration of malic acid in fermentate at completion of fermentation (pH 4.6) ([4]; strain OLL1255): 0.35 mM; Concentration of succinic acid in fermentate at completion of fermentation (pH 4.6) ([4]; strain P1902901): 1.59 mM; Concentration of fumaric acid (L. salivarius): 0.35 mM; Concentration of malic acid (L. salivarius): 0.75 mM; Concentration of succinic acid (L. salivarius): 0.28 mM; Concentrations at which a fermentation promoting effect was confirmed [5]: 0.01 to 50 mM
